Converted amounts (≈) assume the structure as drawn.
Assays:
Assay type in all cases: functional
[1] = system: Corynebacterium amycolatum; assay: Antimicrobial activity against Corynebacterium amycolatum at <= 0.06 ug/ml by broth microdilution method
[2] = system: Corynebacterium amycolatum; assay: Antimicrobial activity against Corynebacterium amycolatum at 0.12 ug/ml by broth microdilution method
[3] = system: Enterococcus avium; assay: Antimicrobial activity against Enterococcus avium at <= 0.06 ug/ml by broth microdilution method
[4] = system: Rothia mucilaginosa; assay: Antimicrobial activity against Rothia mucilaginosa at 0.12 ug/ml by broth microdilution method
[5] = system: Bacillus cereus; assay: Antimicrobial activity against Bacillus cereus by broth microdilution method
[6] = system: Streptococcus vestibularis; assay: Antimicrobial activity against viridans group Streptococcus vestibularis by broth microdilution method
[7] = system: Aerococcus; assay: Antimicrobial activity against Aerococcus spp. at <= 0.06 ug/ml by broth microdilution method
[8] = system: Streptococcus parasanguinis; assay: Antimicrobial activity against viridans group Streptococcus parasanguis at 0.5 ug/ml by broth microdilution method
[9] = system: Enterococcus avium; assay: Antimicrobial activity against Enterococcus avium at 1 ug/ml by broth microdilution method
[10] = system: Enterococcus durans; assay: Antimicrobial activity against Enterococcus durans at 1 ug/ml by broth microdilution method
[11] = system: Streptococcus constellatus; assay: Antimicrobial activity against viridans group Streptococcus constellatus at 0.12 ug/ml by broth microdilution method
[12] = system: Streptococcus mutans; assay: Antimicrobial activity against viridans group Streptococcus mutans at 1 ug/ml by broth microdilution method
[13] = system: Enterococcus gallinarum; assay: Antimicrobial activity against Enterococcus gallinarum at <= 0.06 ug/ml by broth microdilution method
[14] = system: Corynebacterium jeikeium; assay: Antimicrobial activity against Corynebacterium jeikeium at 1 ug/ml by broth microdilution method
[15] = system: Streptococcus sanguinis; assay: Antimicrobial activity against viridans group Streptococcus sanguinis at 0.5 ug/ml by broth microdilution method
[16] = system: Enterococcus casseliflavus; assay: Antimicrobial activity against Enterococcus casseliflavus at <= 0.06 ug/ml by broth microdilution method
[17] = system: Streptococcus mitis; assay: Antimicrobial activity against viridans group Streptococcus mitis at 2 ug/ml by broth microdilution method
[18] = system: Bacillus sp.; assay: Antimicrobial activity against Bacillus spp. by broth microdilution method; settings: Bacillus sp. (in: firmicutes)
[19] = system: Corynebacterium sp.; assay: Antimicrobial activity against Corynebacterium spp. at 1 ug/ml by broth microdilution method
[20] = system: Enterococcus hirae; assay: Antimicrobial activity against Enterococcus hirae at <= 0.06 ug/ml by broth microdilution method
[21] = system: Streptococcus anginosus; assay: Antimicrobial activity against viridans group Streptococcus anginosus at 0.5 ug/ml by broth microdilution method
[22] = system: Listeria monocytogenes; assay: Antimicrobial activity against Listeria monocytogenes by broth microdilution method
[23] = system: Streptococcus oralis; assay: Antimicrobial activity against viridans group Streptococcus oralis at <= 0.06 ug/ml by broth microdilution method
[24] = system: Streptococcus; assay: Antimicrobial activity against beta hemolytic Streptococcus group C at 0.12 ug/ml by broth microdilution method
[25] = system: Enterococcus casseliflavus; assay: Antimicrobial activity against Enterococcus casseliflavus at 1 ug/ml by broth microdilution method
[26] = system: Streptococcus intermedius; assay: Antimicrobial activity against viridans group Streptococcus intermedius at <= 0.06 ug/ml by broth microdilution method
[27] = system: Corynebacterium jeikeium; assay: Antimicrobial activity against Corynebacterium jeikeium at 0.12 ug/ml by broth microdilution method
[28] = system: Streptococcus parasanguinis; assay: Antimicrobial activity against viridans group Streptococcus parasanguis at <= 0.06 ug/ml by broth microdilution method
[29] = system: Enterococcus durans; assay: Antimicrobial activity against Enterococcus durans at 0.5 ug/ml by broth microdilution method
[30] = system: Bacillus cereus; assay: Antimicrobial activity against Bacillus cereus at 2 ug/ml by broth microdilution method
[31] = system: Bacillus sp.; assay: Antimicrobial activity against Bacillus spp. at <= 0.06 ug/ml by broth microdilution method
[32] = system: Corynebacterium pseudodiphtheriticum; assay: Antimicrobial activity against Corynebacterium pseudodiphtheriticum by broth microdilution method
[33] = system: Corynebacterium sp.; assay: Antimicrobial activity against Corynebacterium spp. at 0.12 ug/ml by broth microdilution method
[34] = system: Enterococcus avium; assay: Antimicrobial activity against Enterococcus avium at 0.5 ug/ml by broth microdilution method
[35] = system: Enterococcus raffinosus; assay: Antimicrobial activity against Enterococcus raffinosus at 0.5 ug/ml by broth microdilution method
[36] = system: Corynebacterium pseudodiphtheriticum; assay: Antimicrobial activity against Corynebacterium pseudodiphtheriticum at 0.12 ug/ml by broth microdilution method
[37] = system: Enterococcus durans; assay: Antimicrobial activity against Enterococcus durans at 2 ug/ml by broth microdilution method
[38] = system: Streptococcus salivarius; assay: Antimicrobial activity against viridans group Streptococcus salivarius at 2 ug/ml by broth microdilution method
[39] = system: Enterococcus hirae; assay: Antimicrobial activity against Enterococcus hirae at 0.12 ug/ml by broth microdilution method
[40] = system: Aerococcus; assay: Antimicrobial activity against Aerococcus spp. at 2 ug/ml by broth microdilution method
[41] = system: Enterococcus gallinarum; assay: Antimicrobial activity against Enterococcus gallinarum at 1 ug/ml by broth microdilution method
[42] = system: Streptococcus gordonii; assay: Antimicrobial activity against viridans group Streptococcus gordonii at 0.12 ug/ml by broth microdilution method
[43] = system: Streptococcus oralis; assay: Antimicrobial activity against viridans group Streptococcus oralis at 2 ug/ml by broth microdilution method
[44] = system: Streptococcus equinus; assay: Antimicrobial activity against viridans group Streptococcus bovis by broth microdilution method
[45] = system: Enterococcus casseliflavus; assay: Antimicrobial activity against Enterococcus casseliflavus by broth microdilution method
[46] = system: Streptococcus constellatus; assay: Antimicrobial activity against viridans group Streptococcus constellatus by broth microdilution method
[47] = system: Streptococcus oralis; assay: Antimicrobial activity against viridans group Streptococcus oralis at 0.25 ug/ml by broth microdilution method
[48] = system: Bacillus sp.; assay: Antimicrobial activity against Bacillus spp. at 0.12 ug/ml by broth microdilution method; settings: Bacillus sp. (in: firmicutes)
[49] = system: Streptococcus vestibularis; assay: Antimicrobial activity against viridans group Streptococcus vestibularis at 0.25 ug/ml by broth microdilution method
[50] = system: Corynebacterium striatum; assay: Antimicrobial activity against Corynebacterium striatum at <= 0.06 ug/ml by broth microdilution method
[51] = system: Listeria monocytogenes; assay: Antimicrobial activity against Listeria monocytogenes at 2 ug/ml by broth microdilution method
[52] = system: Listeria monocytogenes; assay: Antimicrobial activity against Listeria monocytogenes at 0.12 ug/ml by broth microdilution method
[53] = system: Bacillus cereus; assay: Antimicrobial activity against Bacillus cereus at 0.12 ug/ml by broth microdilution method
[54] = system: Listeria monocytogenes; assay: Antimicrobial activity against Listeria monocytogenes at 1 ug/ml by broth microdilution method
[55] = system: Bacillus sp.; assay: Antimicrobial activity against Bacillus spp. at 2 ug/ml by broth microdilution method; settings: Bacillus sp. (in: firmicutes)
[56] = system: Streptococcus salivarius; assay: Antimicrobial activity against viridans group Streptococcus salivarius at 0.25 ug/ml by broth microdilution method

Question: Which Inhibition [1] does the source give for `CC(=O)NC[C@H]1CN(c2ccc(N3CCOCC3)c(F)c2)C(=O)O1` [LINEZOLID] here?
Answer: 0%

Question: What about the inhibition at 0.12 µg/mL [2] of the same compound?
Answer: 27.3%

Question: And the Inhibition [3]?
Answer: 0%

Question: What about the inhibition at 0.12 µg/mL [4] of the same compound?
Answer: 5.6%

Question: And the MIC50 [5]?
Answer: 1 µg/mL (≈ 2.96 µM)

Question: And the MIC90 [5]?
Answer: 1 µg/mL (≈ 2.96 µM)

Question: What about the MIC50 [6] of the same compound?
Answer: 1 µg/mL (≈ 2.96 µM)

Question: What about the MIC90 [6] of the same compound?
Answer: 1 µg/mL (≈ 2.96 µM)

Question: And the Inhibition [7]?
Answer: 0%

Question: What about the inhibition at 0.5 µg/mL [8] of the same compound?
Answer: 57.1%

Question: And the inhibition at 1 µg/mL [9]?
Answer: 52.6%

Question: And the inhibition at 1 µg/mL [10]?
Answer: 32.7%

Question: And the inhibition at 0.12 µg/mL [11]?
Answer: 3.4%

Question: What about the inhibition at 1 µg/mL [12] of the same compound?
Answer: 89.5%

Question: And the Inhibition [13]?
Answer: 0%

Question: And the inhibition at 1 µg/mL [14]?
Answer: 100%

Question: What about the inhibition at 0.5 µg/mL [15] of the same compound?
Answer: 36.6%

Question: What about the Inhibition [16] of the same compound?
Answer: 0%

Question: And the inhibition at 2 µg/mL [17]?
Answer: 100%

Question: What about the MIC50 [18] of the same compound?
Answer: 1 µg/mL (≈ 2.96 µM)

Question: And the MIC90 [18]?
Answer: 1 µg/mL (≈ 2.96 µM)

Question: And the inhibition at 1 µg/mL [19]?
Answer: 99.6%

Question: What about the Inhibition [20] of the same compound?
Answer: 0%

Question: What about the inhibition at 0.5 µg/mL [21] of the same compound?
Answer: 33.7%

Question: What about the MIC50 [22] of the same compound?
Answer: 2 µg/mL (≈ 5.93 µM)

Question: And the MIC90 [22]?
Answer: 2 µg/mL (≈ 5.93 µM)

Question: What about the Inhibition [23] of the same compound?
Answer: 0.7%

Question: What about the inhibition at 0.12 µg/mL [24] of the same compound?
Answer: 3%

Question: And the inhibition at 1 µg/mL [25]?
Answer: 23.1%

Question: And the Inhibition [26]?
Answer: 0%

Question: What about the inhibition at 0.12 µg/mL [27] of the same compound?
Answer: 5.1%

Question: And the Inhibition [28]?
Answer: 0%

Question: What about the inhibition at 0.5 µg/mL [29] of the same compound?
Answer: 8.2%

Question: And the inhibition at 2 µg/mL [30]?
Answer: 100%

Question: And the Inhibition [31]?
Answer: 0.7%

Question: What about the MIC50 [32] of the same compound?
Answer: 0.5 µg/mL (≈ 1.48 µM)

Question: What about the MIC90 [32] of the same compound?
Answer: 0.5 µg/mL (≈ 1.48 µM)

Question: What about the inhibition at 0.12 µg/mL [33] of the same compound?
Answer: 13.6%

Question: What about the inhibition at 0.5 µg/mL [34] of the same compound?
Answer: 4.3%

Question: What about the inhibition at 0.5 µg/mL [35] of the same compound?
Answer: 0%

Question: What about the inhibition at 0.12 µg/mL [36] of the same compound?
Answer: 0%

Question: What about the inhibition at 2 µg/mL [37] of the same compound?
Answer: 100%

Question: And the inhibition at 2 µg/mL [38]?
Answer: 100%

Question: And the inhibition at 0.12 µg/mL [39]?
Answer: 0%

Question: What about the inhibition at 2 µg/mL [40] of the same compound?
Answer: 100%

Question: And the inhibition at 1 µg/mL [41]?
Answer: 30.3%

Question: And the inhibition at 0.12 µg/mL [42]?
Answer: 0%

Question: And the inhibition at 2 µg/mL [43]?
Answer: 99.3%

Question: What about the MIC50 [44] of the same compound?
Answer: 1 µg/mL (≈ 2.96 µM)

Question: And the MIC90 [44]?
Answer: 2 µg/mL (≈ 5.93 µM)

Question: What about the MIC50 [45] of the same compound?
Answer: 2 µg/mL (≈ 5.93 µM)

Question: And the MIC90 [45]?
Answer: 2 µg/mL (≈ 5.93 µM)

Question: And the MIC50 [46]?
Answer: 1 µg/mL (≈ 2.96 µM)

Question: What about the MIC90 [46] of the same compound?
Answer: 1 µg/mL (≈ 2.96 µM)

Question: And the inhibition at 0.25 µg/mL [47]?
Answer: 3.6%

Question: What about the inhibition at 0.12 µg/mL [48] of the same compound?
Answer: 0.7%

Question: What about the inhibition at 0.25 µg/mL [49] of the same compound?
Answer: 0%

Question: What about the Inhibition [50] of the same compound?
Answer: 0%

Question: And the inhibition at 2 µg/mL [51]?
Answer: 100%

Question: And the inhibition at 0.12 µg/mL [52]?
Answer: 0%

Question: And the inhibition at 0.12 µg/mL [53]?
Answer: 1.7%

Question: And the inhibition at 1 µg/mL [54]?
Answer: 29.2%

Question: What about the inhibition at 2 µg/mL [55] of the same compound?
Answer: 100%

Question: And the inhibition at 0.25 µg/mL [56]?
Answer: 3.3%

Reference: ChEMBL document CHEMBL1145534 (2007)
